Where two headings read alike, the source gives them in different places.
System: DRG neurites
Conditions: for reduction in DRG area versus day 0: vincristine 0.01 μM; for Area (DRG neuritic halo) / Length (longest neurite): Vin 0.01 μM, AK295 50 μM, EGTA 2 mM, sulfate salt
Method: On the day of DRG culture, the dishes are washed twice with PBS buffer (pH 7.4), filled with 550 μl medium and pre-incubated at 37 C for at least 2 hours. Fifteen-day old embryos (E15) are removed from pregnant Sprague-Dawley rats (Charles River), and spinal cords with cervical and thoracic DRGs attached are dissected into Leibovitz L-15 medium (GIBCO). Ganglia are separated from the spinal cord, stripped of their connective tissue sheaths and roots, and are then pooled and washed twice with PBS buffer (pH 7.4). DRGs are plated (4 per dish) in culture media and incubated at 37° C. in 5% carbon dioxide for 4 hours to allow DRGs to attach to the substrate. Medium is then added to bring the total volume to 1 ml. […] Calcium-free medium is prepared in the same manner, replacing MEM with S-MEM (GIBCO).
At the end of the treatment period (see below) DRGs are fixed for 30 minutes with 4% paraformaldehyde. Cultures are then rinsed with 0.1M TBS buffer, and treated sequentially with 3% H2O2, TBS-Triton, and 4% normal goat serum (NGS), each for 30 minutes at room temperature. DRGs are incubated at 4 C overnight in monoclonal antibody to MAP5 (1:500, Sigma). After washing in TBS-Triton, DRGs are incubated for 60 minutes in biotinylated secondary antibody, rinsed with TBS and reacted with avidin-biotin complex solution (ABC; Vector Labs) for one hour. Color is generated by incubation for 10 minutes in diaminobenzidine (DAB) solution, enhanced by addition of 0.025% cobalt chloride and 0.02% nickel ammonium sulfate. Stained tissue is rinsed, air dried and cover-slipped for microscopy with Crystal/Mount (Biomeda).
This method of allowing neuritic extension to proceed before addition of a neurotoxin tests the effect of the toxin on established neurites as opposed to the effect on primary neuritic outgrowth.
After day 5 of culture, the media is changed to that containing the experimental treatment. This date is defined as treatment day 0. Cultures are monitored and imaged daily using video microscopy. […] AK 295 (Z-leu-Abu-(CH2)3-4-morpholinyl, gift of Dr. James Powers, Georgia Institute of Technology), is dissolved in 100% DMSO and is then diluted to its final concentration with culture medium. The final concentration of DMSO is 0.05%. Phenylmethylsulfonyl fluoride (PMSF) is manufactured by and commercially available from Sigma.
After 6 days of treatment (11 days in culture) immunostained DRGs are quantitated for degree of axonal degeneration. Images of the DRGs and neurites are captured onto disk using a computerized video imaging system, and are analyzed using NIH Image version 1.61. DRG areas are calculated by tracing the outside circumference of the remaining culture halo. The length of the longest neurite of each DRG is measured from the center of the DRG to the distal end of the neurite, so that cultures without remaining neurites still have positive values. These quantitative data are subjected to ANOVA, with post-test correction for multiple comparisons.

[1] = Day 3 of treatment, listed as Vin
[2] = Day 4 of treatment, listed as Vin
[3] = Day 6 of treatment, PMSF 50 μM, listed as Vin

Vincristine sulfate salt
process of axonal degeneration (in words) (0.01 μM): relatively slow | reduction in DRG area versus day 0 (4 days exposure): 91.5% | reduction in DRG area versus day 0 (6 days exposure): 97.9% | Area (DRG neuritic halo) [1]: 6.78 ± 1.06 (17) mm^2 | Length (longest neurite) [1]: 1.62 ± 0.19 mm | Area (DRG neuritic halo) (Day 3 of treatment): 6.78±1.06 mm^2 | Length (longest neurite) (Day 3 of treatment): 1.62±0.19 mm | Area (DRG neuritic halo) [2]: 2.45 ± 0.74 (13) mm^2 | Length (longest neurite) [2]: 0.91 ± 0.19 mm | Area (DRG neuritic halo) (Day 4 of treatment): 2.45±0.74 mm^2 | Length (longest neurite) (Day 4 of treatment): 0.91±0.19 mm | Area (DRG neuritic halo) [3]: 0.61 ± 0.21 (48) mm^2 | Length (longest neurite) [3]: 0.37 ± 0.06 mm | Area (DRG neuritic halo) (Day 6 of treatment, PMSF 50 μM): 0.16±0.61 mm^2 | Length (longest neurite) (Day 6 of treatment, PMSF 50 μM): 0.37±0.06 mm | time within which axonal degeneration occurs (concentrations 0.05 μM, 5 day-old cultures): 1 to 3 days | reduction in length of the longest axons versus day 0 (day 3, vincristine 0.01 μM): 57.6% | reduction in length of the longest axons versus day 0 (day 4, vincristine 0.01 μM): 76.2% | reduction in length of the longest axons versus day 0 (day 6, vincristine 0.01 μM): 90.3% | reduction in DRG area versus day 0 (three days exposure): 76.6% | time until fibers are completely replaced by axonal debris (vincristine exposure (FIG. 1: 0.01 μM)): 5 to 6 days
